The values that follow are results of earlier work, collected in patent publication US20220280561A1, “COPPER-ATSM FOR TREATING NEURODEGENERATIVE DISORDERS ASSOCITED WITH MITOCHONDRIAL DYSFUNCTION” (RESEARCH INSTITUTE AT NATIONWIDE CHILDREN'S HOSPITAL, priority 2019, published 2022).

The subject of this data set is ALS. The settings on record: ALS patients; cited from earlier work.

`CC1=NN(c2ccccc2)C(=O)C1` [Edaravone]: the “patient quality of life” value was “significant impact on patient quality of life”.

For the compound `Nc1nc2ccc(OC(F)(F)F)cc2s1` [Riluzole], the lifespan result was “modestly extending lifespan”.
